Where two headings read alike, the source gives them in different places.
Tests used:
JAK3 = biological target: T1, JAK3 (Homo sapiens, UniProt P52333); experiment: CEREP protein kinase assay; assay type: biochemical
T1 construct: purchased CEREP Panlabs (Eurofins)
T1 sequence (P52333 1-1124): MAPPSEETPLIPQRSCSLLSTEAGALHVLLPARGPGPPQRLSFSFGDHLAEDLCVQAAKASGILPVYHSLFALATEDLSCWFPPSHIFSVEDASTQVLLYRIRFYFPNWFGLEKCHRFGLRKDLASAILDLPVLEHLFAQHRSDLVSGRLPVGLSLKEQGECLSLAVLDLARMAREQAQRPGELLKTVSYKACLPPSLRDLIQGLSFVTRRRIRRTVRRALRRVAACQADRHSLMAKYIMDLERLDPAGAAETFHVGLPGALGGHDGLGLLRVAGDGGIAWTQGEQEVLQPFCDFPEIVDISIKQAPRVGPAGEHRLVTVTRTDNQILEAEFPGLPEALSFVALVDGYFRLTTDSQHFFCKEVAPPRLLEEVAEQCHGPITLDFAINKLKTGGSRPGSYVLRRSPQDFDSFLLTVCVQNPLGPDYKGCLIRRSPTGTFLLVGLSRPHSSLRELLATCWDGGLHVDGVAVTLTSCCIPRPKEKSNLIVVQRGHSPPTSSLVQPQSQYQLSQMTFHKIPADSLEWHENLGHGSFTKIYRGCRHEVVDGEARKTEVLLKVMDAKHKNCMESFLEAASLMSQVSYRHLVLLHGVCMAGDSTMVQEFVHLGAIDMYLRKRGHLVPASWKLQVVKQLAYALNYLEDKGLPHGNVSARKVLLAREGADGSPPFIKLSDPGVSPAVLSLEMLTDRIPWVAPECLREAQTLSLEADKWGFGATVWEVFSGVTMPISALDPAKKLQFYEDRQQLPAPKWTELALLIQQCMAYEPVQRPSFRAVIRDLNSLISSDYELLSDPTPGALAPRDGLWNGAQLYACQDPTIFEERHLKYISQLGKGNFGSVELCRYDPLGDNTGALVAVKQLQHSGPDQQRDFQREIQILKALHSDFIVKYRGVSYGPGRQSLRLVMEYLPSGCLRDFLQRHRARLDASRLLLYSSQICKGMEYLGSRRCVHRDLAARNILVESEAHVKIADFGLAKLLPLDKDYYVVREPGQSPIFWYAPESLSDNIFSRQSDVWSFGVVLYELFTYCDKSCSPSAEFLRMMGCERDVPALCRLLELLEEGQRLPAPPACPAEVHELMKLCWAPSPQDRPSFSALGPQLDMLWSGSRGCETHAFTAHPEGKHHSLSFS

IRAK1 = biological target: T2, IRAK1 (Homo sapiens, UniProt P51617); experiment: CEREP protein kinase assay; assay type: biochemical
T2 construct: purchased CEREP Panlabs (Eurofins)

ABL = biological target: T3, ABL (Homo sapiens, UniProt P00519); experiment: CEREP protein kinase assay; assay type: biochemical
T3 construct: purchased CEREP Panlabs (Eurofins)

DRAK1 = biological target: T4, DRAK1 (Homo sapiens, UniProt Q9UEE5); experiment: CEREP protein kinase assay; assay type: biochemical
T4 construct: purchased CEREP Panlabs (Eurofins)
T4 sequence (Q9UEE5 1-414): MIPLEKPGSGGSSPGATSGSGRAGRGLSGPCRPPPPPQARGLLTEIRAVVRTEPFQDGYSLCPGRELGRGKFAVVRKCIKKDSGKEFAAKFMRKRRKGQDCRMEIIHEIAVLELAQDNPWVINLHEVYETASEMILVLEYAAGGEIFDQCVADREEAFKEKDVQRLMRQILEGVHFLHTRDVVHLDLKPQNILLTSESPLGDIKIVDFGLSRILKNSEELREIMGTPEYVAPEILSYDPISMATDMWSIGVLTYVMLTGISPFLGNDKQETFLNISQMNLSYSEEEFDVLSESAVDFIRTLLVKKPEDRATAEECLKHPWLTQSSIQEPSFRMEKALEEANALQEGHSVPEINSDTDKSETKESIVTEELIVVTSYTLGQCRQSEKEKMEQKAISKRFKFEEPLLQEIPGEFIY

NCI-H1155 (lung) = experiment: Low folate & high folate in vitro proliferation assay (Alamar Blue); assay type: cell-based; conditions: Homo sapiens
Protocol: (§1) Cells lines were acquired from cell banks, see supplemental material, grown using the cell banks recommended culture conditions (Supplemental Table 3). In some experiments noted “low folate” the cells were washed and grown in folate free RPMI-1640 media (Gibco #27016-021) supplemented with 5 ml 1 M Hepes, 5 ml 100 mM Na pyruvate, 2.5 mg/ml glucose and 10% defined FBS (Hyclone #SH30070) per 500 mL media for 5–7 days to deplete intracellular folate levels prior to the start of the experiment. Where noted, cells were maintained in complete “high folate” RPMI-1640 media (ATCC #30-2001) with 10% defined FBS to contrast with the low folate conditions.
(§2) Cells were cultured using recommended culture conditions unless noted otherwise (Supplemental Table 3). Cells were plated, dosed with compound and incubated at 37 °C for approximately 2 doubling times as determined for each cell line. Cell Titer Glo (Promega) assay was used to measure proliferation according to manufacturer’s recommendations by measuring luminescence with Flexstation3 (Molecular Devices) with 500 ms integration time. […] The % response was fit to a four-parameter logistic equation using ACTIVITYBASE 4.0 to determine the absolute IC50 values.
(§3) For a limited number of cell lines, compound dosing was performed under high or low folate conditions with cell viability being determined with Alamar Blue rather than an ATP dependent assay. Cells were plated and treated as described above. Proliferation was measured using Alamar Blue Cell Viability Reagent (Invitrogen), and read after approximately 1.5–4 hours incubation at 37 °C on the Envision plate reader (Perkin Elmer) with excitation at 570 nm and emission at 585 nm. The % inhibition for each sample was calculated and fit as described above.

NCI-H1437 (lung) = experiment: as above; assay type: cell-based; conditions: Homo sapiens
Protocol: as §1, §2, §3

NCI-H1299 = experiment: as above; assay type: cell-based; conditions: Homo sapiens
Protocol: as §1, §2, §3

MDA-MB-231 (mammary) = experiment: as above; assay type: cell-based; conditions: Homo sapiens
Protocol: as §1, §2, §3

NCI-H1993 (lung) = experiment: as above; assay type: cell-based; conditions: Homo sapiens
Protocol: as §1, §2, §3

A549 (lung) = experiment: as above; assay type: cell-based; conditions: Homo sapiens, low folate RPMI media
Protocol: as §1, §2, §3

IGF1R = biological target: T5, IGF1R (Homo sapiens, UniProt P08069); experiment: CEREP protein kinase assay; assay type: biochemical
T5 construct: purchased CEREP Panlabs (Eurofins)

[1] = RPMI media, read-out: Alamar Blue GI50 Regular folate
[2] = low folate RPMI media, read-out: Alamar Blue GI50 Low folate

T3 sequence (P00519 whole entry): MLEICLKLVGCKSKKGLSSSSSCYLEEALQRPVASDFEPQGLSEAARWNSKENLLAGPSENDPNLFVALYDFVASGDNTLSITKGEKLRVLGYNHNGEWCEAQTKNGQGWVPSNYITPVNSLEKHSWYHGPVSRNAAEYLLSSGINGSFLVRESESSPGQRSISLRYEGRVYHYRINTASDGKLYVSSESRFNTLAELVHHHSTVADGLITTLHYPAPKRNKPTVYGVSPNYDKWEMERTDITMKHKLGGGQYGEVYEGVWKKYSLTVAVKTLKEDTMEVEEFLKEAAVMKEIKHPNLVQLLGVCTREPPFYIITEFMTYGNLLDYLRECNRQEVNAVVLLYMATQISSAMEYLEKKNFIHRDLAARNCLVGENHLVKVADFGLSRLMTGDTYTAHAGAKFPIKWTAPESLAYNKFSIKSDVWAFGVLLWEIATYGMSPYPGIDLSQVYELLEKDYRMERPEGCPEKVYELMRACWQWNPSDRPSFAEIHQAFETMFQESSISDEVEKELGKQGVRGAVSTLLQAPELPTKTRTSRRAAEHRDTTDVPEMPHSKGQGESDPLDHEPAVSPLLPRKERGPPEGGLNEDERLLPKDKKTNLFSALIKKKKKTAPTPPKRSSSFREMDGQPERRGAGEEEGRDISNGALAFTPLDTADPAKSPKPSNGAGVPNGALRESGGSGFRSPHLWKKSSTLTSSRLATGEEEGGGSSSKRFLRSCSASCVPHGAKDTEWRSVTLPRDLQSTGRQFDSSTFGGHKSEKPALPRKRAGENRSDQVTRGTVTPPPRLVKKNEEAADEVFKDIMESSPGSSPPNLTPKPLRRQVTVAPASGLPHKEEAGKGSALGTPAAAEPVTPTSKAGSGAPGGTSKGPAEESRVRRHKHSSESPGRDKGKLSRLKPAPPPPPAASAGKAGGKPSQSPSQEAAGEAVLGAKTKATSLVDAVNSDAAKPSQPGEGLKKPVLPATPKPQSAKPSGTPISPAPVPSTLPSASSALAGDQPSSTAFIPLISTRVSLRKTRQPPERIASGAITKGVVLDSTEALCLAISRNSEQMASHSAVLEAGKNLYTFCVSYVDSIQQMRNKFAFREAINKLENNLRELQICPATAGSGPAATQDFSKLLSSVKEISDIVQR
T5 sequence (P08069 31-1367): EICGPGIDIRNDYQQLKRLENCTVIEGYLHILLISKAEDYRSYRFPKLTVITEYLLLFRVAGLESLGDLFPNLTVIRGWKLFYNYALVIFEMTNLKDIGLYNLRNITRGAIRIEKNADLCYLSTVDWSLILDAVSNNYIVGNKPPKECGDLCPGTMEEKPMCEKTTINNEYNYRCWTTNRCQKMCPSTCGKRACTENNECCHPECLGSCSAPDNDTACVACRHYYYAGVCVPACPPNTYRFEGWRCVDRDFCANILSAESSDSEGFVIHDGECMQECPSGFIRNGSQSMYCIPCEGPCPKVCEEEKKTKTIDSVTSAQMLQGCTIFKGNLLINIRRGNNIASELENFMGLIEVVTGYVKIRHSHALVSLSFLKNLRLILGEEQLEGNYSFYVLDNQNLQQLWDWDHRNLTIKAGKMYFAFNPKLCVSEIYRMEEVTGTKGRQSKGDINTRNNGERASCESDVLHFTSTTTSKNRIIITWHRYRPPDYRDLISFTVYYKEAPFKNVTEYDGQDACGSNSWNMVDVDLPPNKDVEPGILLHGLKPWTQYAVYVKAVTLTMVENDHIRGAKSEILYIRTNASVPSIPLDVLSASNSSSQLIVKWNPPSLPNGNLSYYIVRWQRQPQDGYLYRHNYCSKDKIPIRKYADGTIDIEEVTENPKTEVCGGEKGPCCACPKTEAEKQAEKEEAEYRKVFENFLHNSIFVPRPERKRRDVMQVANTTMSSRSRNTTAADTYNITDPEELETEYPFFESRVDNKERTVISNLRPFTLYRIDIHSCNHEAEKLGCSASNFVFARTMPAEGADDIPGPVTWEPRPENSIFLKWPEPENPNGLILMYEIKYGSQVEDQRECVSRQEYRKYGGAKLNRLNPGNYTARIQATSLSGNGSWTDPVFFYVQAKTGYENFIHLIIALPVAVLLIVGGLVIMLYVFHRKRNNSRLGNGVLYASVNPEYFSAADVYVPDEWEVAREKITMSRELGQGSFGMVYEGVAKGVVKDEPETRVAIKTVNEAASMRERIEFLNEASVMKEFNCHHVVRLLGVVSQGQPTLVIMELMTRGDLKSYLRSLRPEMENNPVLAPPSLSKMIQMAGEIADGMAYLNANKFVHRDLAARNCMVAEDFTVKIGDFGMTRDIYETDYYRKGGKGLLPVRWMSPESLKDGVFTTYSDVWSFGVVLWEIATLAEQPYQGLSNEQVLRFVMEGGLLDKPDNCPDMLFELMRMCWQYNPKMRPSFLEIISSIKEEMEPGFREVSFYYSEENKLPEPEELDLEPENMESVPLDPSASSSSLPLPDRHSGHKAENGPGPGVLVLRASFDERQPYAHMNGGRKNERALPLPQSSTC
T2 sequence (P51617 whole entry): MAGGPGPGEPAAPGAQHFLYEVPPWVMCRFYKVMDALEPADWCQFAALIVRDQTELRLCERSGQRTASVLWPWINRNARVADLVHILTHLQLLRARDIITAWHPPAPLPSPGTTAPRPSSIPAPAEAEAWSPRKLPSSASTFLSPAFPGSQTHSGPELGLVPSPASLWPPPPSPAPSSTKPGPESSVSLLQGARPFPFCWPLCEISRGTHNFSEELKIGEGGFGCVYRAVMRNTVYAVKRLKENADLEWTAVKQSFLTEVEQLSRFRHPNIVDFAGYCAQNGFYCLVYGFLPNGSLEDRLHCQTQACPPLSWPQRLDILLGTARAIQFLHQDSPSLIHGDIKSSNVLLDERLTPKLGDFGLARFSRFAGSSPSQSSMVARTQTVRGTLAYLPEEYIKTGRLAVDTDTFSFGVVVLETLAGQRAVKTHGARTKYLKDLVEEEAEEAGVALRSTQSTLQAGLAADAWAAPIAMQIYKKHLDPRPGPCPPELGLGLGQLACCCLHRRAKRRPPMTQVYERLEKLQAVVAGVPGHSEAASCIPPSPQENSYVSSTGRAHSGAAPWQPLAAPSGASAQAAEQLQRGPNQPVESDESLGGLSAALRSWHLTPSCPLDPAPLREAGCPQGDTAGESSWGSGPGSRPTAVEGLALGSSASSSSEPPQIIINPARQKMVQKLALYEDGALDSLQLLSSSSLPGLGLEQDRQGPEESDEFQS

`O=c1[nH]ccc2cc(F)c(NS(=O)(=O)c3ccc(N4CC[C@@H](O)C4)s3)cc12` [LSN3213128, N-(6-Fluoro-1-oxo-1,2-dihydroisoquinolin-7-yl)-5-[(3R)-3-hydroxypyrrolidin-1-yl]thiophene-2-sulfonamide] was tested, and the inhibition at 0.2 µM (JAK3; @ 0.2 uM) was -5.81%, the inhibition at 2 µM (JAK3; @ 2 uM) was 2.78% and the inhibition at 20 µM (JAK3; @ 20 uM) was 28.6%. The inhibition at 0.2 µM (IRAK1; @ 0.2 uM) was -0.781%, the inhibition at 2 µM (IRAK1; @ 2 uM) was 4.26% and the inhibition at 20 µM (IRAK1; @ 20 uM) was 42.2%. For the same molecule, the inhibition at 0.2 µM (ABL; @ 0.2 uM) was -13.8%, the inhibition at 2 µM (ABL; @ 2 uM) was -14.6% and the inhibition at 20 µM (ABL; @ 20 uM) was -0.27%. For the same molecule, the inhibition at 0.2 µM (DRAK1; @ 0.2 uM) was 4.41%, the inhibition at 2 µM (DRAK1; @ 2 uM) was 13.9% and the inhibition at 20 µM (DRAK1; @ 20 uM) was 20.3%. It also gave a GI50 (NCI-H1155 (lung); [1]) of 729 ± 215 nM, a GI50 (NCI-H1155 (lung); [2]) of 4.9 nM and a GI50 (NCI-H1437 (lung); [1]) of 1880 ± 894 nM. For the same molecule, the GI50 (NCI-H1437 (lung); [2]) was 0.73 nM, the GI50 (NCI-H1299; [1]) was 1590 nM and the GI50 (NCI-H1299; [2]) was 4.8 nM. For the same molecule, the GI50 (MDA-MB-231 (mammary); [1]) was 85 ± 42 nM, the GI50 (MDA-MB-231 (mammary); [2]) was 0.49 nM and the GI50 (NCI-H1993 (lung); [1]) was 2680 ± 2540 nM. The GI50 (NCI-H1993 (lung); [2]) was 3 ± 2.7 nM, the GI50 (A549 (lung)) was 6 nM and the inhibition at 0.2 µM (IGF1R; @ 0.2 uM) was -0.761%. The inhibition at 2 µM (IGF1R; @ 2 uM) was 6.61% and the inhibition at 20 µM (IGF1R; @ 20 uM) was 60.3%.

— article PMC6193938, “Characterization of a novel AICARFT inhibitor which potently elevates ZMP and has anti-tumor activity in murine models” (Scientific Reports, 2018)
